One series deals with T1, GAPDH (Mus musculus, UniProt P16858).
T1 construct: from tissue; host or cells: cerebral cortex of C57BL/6J mice after TBI
In words: S-nitrosylation of GAPDH after TBI (SNO-resin assisted capture, western blot). Format: in vivo. On the procedure:
(§1) Drug preparation and administration: CGP3466B (Sigma-Aldrich, SML1941) was dissolved in DMSO and then diluted in sterile saline. The final working stock was 0.0014 mg/ml for administering the 0.014 mg/kg dose. Intraperitoneal administration of CGP3466B was initiated 15 min or 24 h after injury, and tissues were harvested 6 h (for SNO-GAPDH, SNO-SIRT1 measurement) or 2 weeks (for ac-tau measurement) later, respectively. Salsalate (AdipoGen, AG-CR1-3574) was dissolved in DMSO and then diluted in sterile PBS. The final working stocks were as follows: 2.5 mg/ml (25 mg/kg dose), 1 mg/ml (10 mg/kg dose), 0.5 mg/ml (5 mg/kg dose). Daily intraperitoneal administration of salsalate was initiated 24 hr after injury and continued throughout behavioral testing. P7C3-A20 and FK866 (Sigma-Aldrich, F8557) were first dissolved in 1 vol of DMSO, followed by addition of 4 vol of Kolliphor and vigorously vortexing. The solution was then diluted with 30 vol of filtered 5% dextrose (pH 7.0). EX527 (Selleckchem, S1541) was dissolved in 1% DMSO+30% polyethylene glycol+1% Tween 80. Daily intraperitoneal administration of P7C3-A20 was initiated 24 hr after poly-traumatic brain injury. EX527 (10 mg/kg) was administer once a day and FK866 was treated twice per day, with the first injection given at the same time as P7C3-A20 (20 mg/kg) and the second injection given 6 h later (LoCoco et al., 2017 eLife). Diflunisal was first dissolved in 1 vol of DMSO, followed by addition of 2 vol of Kolliphor and vigorously vortexing. […]
SNO-resin assisted capture (SNO-RAC): SNO-RAC was performed as described previously (Forrester, 2009). […] After two times centrifugation (20,000 g at 4° C. for 20 min), protein concentration of supernatants was determined using Coomassie protein assay (Thermo Scientific, #1856210). […] SNO-proteins were then eluted with 2× Laemmli Sample Buffer (Bio-Rad Laboratories, Inc., #1610737) with 10% beta-mercaptoethanol (Bio-Rad Laboratories, Inc., #1610710) and analyzed by SDS-PAGE and immunoblotting.
For orientation: A western blot detects proteins with antibodies after separation by electrophoresis.

The subject of another series is IL-1β. In words: IL-1β expression in cerebral cortex after TBI (qPCR). Format: in vivo, mouse. As to conditions: 25 mg/kg salsalate. On the procedure:
as §1, with “eLife).” for “eLife). Diflunisal was first dissolved in 1 vol of DMSO, followed by addition of 2 vol of Kolliphor and vigorously vortexing.”

Series [1] in a line: Body weight during treatment after TBI. Type of series: in vivo, mouse. To be noted: salsalate daily IP from 24 h after TBI. On the procedure:
Drug preparation and administration: CGP3466B (Sigma-Aldrich, SML1941) was dissolved in DMSO and then diluted in sterile saline. The final working stock was 0.0014 mg/ml for administering the 0.014 mg/kg dose. […] Salsalate (AdipoGen, AG-CR1-3574) was dissolved in DMSO and then diluted in sterile PBS. The final working stocks were as follows: 2.5 mg/ml (25 mg/kg dose), 1 mg/ml (10 mg/kg dose), 0.5 mg/ml (5 mg/kg dose). Daily intraperitoneal administration of salsalate was initiated 24 hr after injury and continued throughout behavioral testing. […] and FK866 (Sigma-Aldrich, F8557) were first dissolved in 1 vol of DMSO, followed by addition of 4 vol of Kolliphor and vigorously vortexing. The solution was then diluted with 30 vol of filtered 5% dextrose (pH 7.0). EX527 (Selleckchem, […]) was dissolved in 1% DMSO+30% polyethylene glycol+1% Tween 80. Daily intraperitoneal administration of […] was initiated 24 hr after poly-traumatic brain injury. EX527 (10 mg/kg) was administer once a day and FK866 was treated twice per day, with the first injection given at the same time as […] (20 mg/kg) and the second injection given 6 h later (LoCoco et al., 2017 eLife). […] The solution was then diluted with 7 vol of saline to the appropriate concentration for administration at 25, 50, or 100 mg/kg.

T1 sequence (P16858 whole entry): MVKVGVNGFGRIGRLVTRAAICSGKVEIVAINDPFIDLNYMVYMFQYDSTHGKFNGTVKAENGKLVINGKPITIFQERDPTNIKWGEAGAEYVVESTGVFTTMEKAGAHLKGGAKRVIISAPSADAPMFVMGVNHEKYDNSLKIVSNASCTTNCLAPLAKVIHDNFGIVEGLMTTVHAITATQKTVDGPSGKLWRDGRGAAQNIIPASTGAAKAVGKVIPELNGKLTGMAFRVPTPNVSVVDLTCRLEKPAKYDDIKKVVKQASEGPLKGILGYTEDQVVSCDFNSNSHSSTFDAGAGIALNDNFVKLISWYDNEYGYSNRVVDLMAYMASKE

Turning to `C#CCN(C)CC1=Cc2ccccc2Oc2ccccc21.O=C(O)/C=C\C(=O)O` [CGP3466B], the “S-nitrosylation of GAPDH” value on GAPDH (CGP3466B 0.014 mg/kg IP initiated 15 min after TBI, cerebral cortex harvested 6 h later, vs. TBI+Vehicle) is “inhibits S-nitrosylation of GAPDH and Sirt1”.
On to `O=C(Oc1ccccc1C(=O)O)c1ccccc1O` [salsalate], for which the “TBI-induced increase of IL-1β in cerebral cortex” value in the series on IL-1β is “this increase is not attenuated”. Also, the body weight result in series [1] is listed as “Body weight was not altered”. Besides, the “S-nitrosylation of GAPDH” value at GAPDH (25 mg/kg salsalate after TBI) was “S-nitrosylation of GAPDH is not affected”.

Source of the values: patent US20240201204A1, “Biomarker and Druggable Target of Neurodegeneration” (University Hospitals Cleveland Medical Center, priority 2020, published 2024).
